Assay results from the supplement of paper PMC8497498.

What was measured:
[1] = test system: Plasmodium vivax liver stage (primary human hepatocyte culture)
Protocol: (§1)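 Dose-response of P. vivax liver stages in primary human hepatocytes, with 8 points (10 uM-[…], v1) or 12 points in duplicate (50 uM-280 pM, v2). Read-out is high-content imaging of schizont net growth area, hypnozoite quantity and hepatic nuclei. EC50 and CC20 (20% nuclei loss) were fitted in CDD Vault from the highest-quality independent experiment; toxic-dose bell-shaped points were masked. '>' marks the highest concentration with less than 50% activity, and ND means a non-sigmoidal curve.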

[2] = test system: Plasmodium vivax liver stage (primary human hepatocyte culture); experiment: maximum inhibition of schizont net growth area; higher = more active
Protocol: as §1

[3] = test system: primary human hepatocytes; experiment: CC20 hepatic nuclei (20% reduction); higher = less toxic
Protocol: as §1

[4] = P. vivax isolate: Pv395, hepatocyte lot: UBV, assay mode: Radical Cure, 8-day (treatment from day 5 post-infection)
[5] = P. vivax isolate: Pv657, hepatocyte lot: BGW, assay mode: Radical Cure, 8-day (treatment from day 5 post-infection)
[6] = P. vivax isolate: Pv728, hepatocyte lot: BGW, assay mode: Radical Cure, 8-day (treatment from day 5 post-infection)
[7] = P. vivax isolate: Pv557, hepatocyte lot: UBV, assay mode: Radical Cure, 8-day (treatment from day 5 post-infection)
[8] = P. vivax isolate: Pv668, hepatocyte lot: BGW, assay mode: Radical Cure, 8-day (treatment from day 5 post-infection)
[9] = P. vivax isolate: Pv590, hepatocyte lot: UBV, assay mode: Radical Cure, 8-day (treatment from day 5 post-infection)
[10] = P. vivax isolate: Pv458, hepatocyte lot: UBV, assay mode: Radical Cure, 8-day (treatment from day 5 post-infection)
[11] = P. vivax isolate: Pv756, hepatocyte lot: BGW, assay mode: Radical Cure, 8-day (treatment from day 5 post-infection)
[12] = P. vivax isolate: IVS16-38, hepatocyte lot: PDC, assay mode: Prophylactic, 6-day
[13] = P. vivax isolate: Pv836, hepatocyte lot: BGW, assay mode: Radical Cure, 8-day (treatment from day 5 post-infection)
[14] = P. vivax isolate: Pv395, hepatocyte lot: UBV, assay mode: Prophylactic, 6-day

c1ccc(-c2csc(Nc3nc4cc5c(cc4s3)OCO5)n2)nc1
EC50 hypnozoite quantity [1, 4]: > 10 µM | EC50 schizont net growth area [1, 4]: > 3.33 µM | maximum inhibition [2, 4]: 72.6% | CC20 hepatic nuclei [3, 4]: > 10 µM

CC(C)(C)n1nc(-c2ccccc2)c2c(N)ncnc21
EC50 hypnozoite quantity [1, 5]: > 50 µM | EC50 schizont net growth area [1, 5]: > 16.7 µM | maximum inhibition [2, 5]: 76.7% | CC20 hepatic nuclei [3, 5]: > 50 µM

CC1(CN2CCC(n3c(O)nc4ccccc43)CC2)OCc2ccccc2-n2cccc21 (stereo unspecified)
EC50 hypnozoite quantity [1, 6]: > 10 µM | EC50 schizont net growth area [1, 6]: 0.395 µM | maximum inhibition [2, 6]: 99.2% | CC20 hepatic nuclei [3, 6]: > 10 µM

Cc1ccnc(Nc2nc(-c3ccccn3)cs2)c1
EC50 hypnozoite quantity [1, 7]: > 50 µM | EC50 schizont net growth area [1, 7]: 1.79 µM | maximum inhibition [2, 7]: 84.1% | CC20 hepatic nuclei [3, 7]: > 5.56 µM

Cc1ccc(Nc2nc(-c3ccccn3)cs2)nc1
EC50 hypnozoite quantity [1, 8]: 19.9 µM | maximum inhibition [2, 8]: 90.9% | CC20 hepatic nuclei [3, 8]: > 50 µM

CCN(CC)CCCNc1nc(-c2ccc(Cl)cc2)nc2ccccc12
EC50 hypnozoite quantity [1, 9]: > 50 µM | EC50 schizont net growth area [1, 9]: > 5.56 µM | maximum inhibition [2, 9]: 99.6% | CC20 hepatic nuclei [3, 9]: 40.2 µM

CCOc1ccc(CCC2CCN(C(C)c3nc(N)nc(N(C)C)n3)CC2)cc1 (stereo unspecified)
EC50 hypnozoite quantity [1, 4]: > 10 µM | EC50 schizont net growth area [1, 4]: > 3.33 µM | maximum inhibition [2, 4]: 64.7% | CC20 hepatic nuclei [3, 4]: > 10 µM

CCOc1ccc2nc(C)cc(Nc3ccc(N(C)C)cc3)c2c1
EC50 hypnozoite quantity [1, 9]: > 50 µM | EC50 schizont net growth area [1, 9]: > 16.7 µM | maximum inhibition [2, 9]: 84.6% | CC20 hepatic nuclei [3, 9]: 16.2 µM

CC[C@H](NC(=O)[C@H](C)NC)C(=O)N1C[C@@H](O)C[C@H]1Cc1c(-c2[nH]c3cc(F)ccc3c2C[C@@H]2C[C@H](O)CN2C(=O)[C@H](CC)NC(=O)[C@H](C)NC)[nH]c2cc(F)ccc12
EC50 hypnozoite quantity [1, 8]: > 50 µM | maximum inhibition [2, 8]: 73% | CC20 hepatic nuclei [3, 8]: > 5.56 µM

CC[C@H]1CN2CCc3cc(OC)c(OC)cc3[C@@H]2C[C@@H]1C[C@H]1NCCc2cc(OC)c(OC)cc21
EC50 hypnozoite quantity [1, 8]: > 50 µM | EC50 schizont net growth area [1, 8]: 0.306 µM | maximum inhibition [2, 8]: 107% | CC20 hepatic nuclei [3, 8]: 2.42 µM

CCn1ncc2c(NC3CCOCC3)c(CNC(=O)c3ccnn3C)c(C)nc21
EC50 hypnozoite quantity [1, 6]: > 50 µM | EC50 schizont net growth area [1, 6]: 0.0266 µM | maximum inhibition [2, 6]: 103% | CC20 hepatic nuclei [3, 6]: > 50 µM

CN(C(=O)c1cc2c(-c3cncnc3)cccc2[nH]1)c1ccccc1
EC50 hypnozoite quantity [1, 5]: > 50 µM | EC50 schizont net growth area [1, 5]: 3.11 µM | maximum inhibition [2, 5]: 84.7% | CC20 hepatic nuclei [3, 5]: > 50 µM

CN(C)CCCNc1c2ccccc2nc2ccccc12
EC50 hypnozoite quantity [1, 8]: > 50 µM | EC50 schizont net growth area [1, 8]: 9.24 µM | maximum inhibition [2, 8]: 108% | CC20 hepatic nuclei [3, 8]: 5.73 µM

CN1CCN(C(c2cccs2)c2ccc3cccnc3c2O)CC1 (stereo unspecified)
EC50 hypnozoite quantity [1, 10]: > 10 µM | maximum inhibition [2, 10]: 60.5% | CC20 hepatic nuclei [3, 10]: > 10 µM

CN1CCN(c2ccc(Nc3c4ccccc4nc4ccccc34)cc2)CC1
EC50 hypnozoite quantity [1, 8]: > 50 µM | EC50 schizont net growth area [1, 8]: 6.04 µM | maximum inhibition [2, 8]: 111% | CC20 hepatic nuclei [3, 8]: 5.55 µM

CNC(=S)N/N=C(\C)c1ccccn1
EC50 hypnozoite quantity [1, 8]: 1.92 µM | EC50 schizont net growth area [1, 8]: 4.44 µM | maximum inhibition [2, 8]: 100% | CC20 hepatic nuclei [3, 8]: > 50 µM

COc1cc(-c2cc(-c3ccc(S(C)(=O)=O)cc3)cnc2N)ccc1O
EC50 hypnozoite quantity [1, 5]: > 50 µM | EC50 schizont net growth area [1, 5]: > 16.7 µM | maximum inhibition [2, 5]: 80.2% | CC20 hepatic nuclei [3, 5]: > 50 µM

COc1ccc(-c2cncc3ccc(C(=O)NCCCn4ccnc4)nc23)cc1
EC50 hypnozoite quantity [1, 5]: > 50 µM | EC50 schizont net growth area [1, 5]: 26 µM | maximum inhibition [2, 5]: 70.8% | CC20 hepatic nuclei [3, 5]: 44.8 µM

COc1ccc(C(=O)C(CCC(CNC(C)(C)C)C(=O)c2ccc(OC)cc2)CNC(C)(C)C)cc1 (stereo unspecified)
EC50 hypnozoite quantity [1, 6]: > 50 µM | EC50 schizont net growth area [1, 6]: 16.6 µM | maximum inhibition [2, 6]: 88.7% | CC20 hepatic nuclei [3, 6]: 40.8 µM

COc1ccc(-c2c(C)nn3c(N)c(C#N)cnc23)cc1OC
EC50 hypnozoite quantity [1, 9]: > 50 µM | EC50 schizont net growth area [1, 9]: 0.599 µM | maximum inhibition [2, 9]: 95.7% | CC20 hepatic nuclei [3, 9]: > 50 µM

COc1ccc(-c2cnc3ccc(N4CCCC4)nn23)cc1OC
EC50 hypnozoite quantity [1, 11]: > 50 µM | EC50 schizont net growth area [1, 11]: > 16.7 µM | maximum inhibition [2, 11]: 103% | CC20 hepatic nuclei [3, 11]: > 16.7 µM

COc1ccc(-c2nn(C(C)C)c3ncnc(N)c23)cc1OC
EC50 hypnozoite quantity [1, 5]: > 50 µM | EC50 schizont net growth area [1, 5]: 0.294 µM | maximum inhibition [2, 5]: 71.3% | CC20 hepatic nuclei [3, 5]: > 50 µM

COc1ccc(-c2cnc3ccc(NCc4ccc(S(N)(=O)=O)cc4)nn23)cn1
EC50 hypnozoite quantity [1, 5]: > 50 µM | maximum inhibition [2, 5]: 79.2% | CC20 hepatic nuclei [3, 5]: > 50 µM

COc1ccccc1CNC(=O)CCn1c(=O)[nH]c2ccccc2c1=O
EC50 hypnozoite quantity [1, 12]: > 10 µM | EC50 schizont net growth area [1, 12]: 0.68 µM | maximum inhibition [2, 12]: 98.3% | CC20 hepatic nuclei [3, 12]: > 10 µM

Cc1nc(Sc2ncnc3sc4c(c23)CCC4)sc1CC(N)=O
EC50 hypnozoite quantity [1, 13]: > 50 µM | EC50 schizont net growth area [1, 13]: 2.86 µM | maximum inhibition [2, 13]: 91% | CC20 hepatic nuclei [3, 13]: > 50 µM

Cc1sc2ncnc(Sc3nc4ccccc4[nH]3)c2c1C
EC50 hypnozoite quantity [1, 9]: > 50 µM | EC50 schizont net growth area [1, 9]: 1.62 µM | maximum inhibition [2, 9]: 92.9% | CC20 hepatic nuclei [3, 9]: 46.9 µM

N#CC(C#N)=NNc1cc(Cl)cc(Cl)c1
EC50 hypnozoite quantity [1, 8]: > 50 µM | EC50 schizont net growth area [1, 8]: 4.04 µM | maximum inhibition [2, 8]: 85.1% | CC20 hepatic nuclei [3, 8]: 5.21 µM

O=S1(=O)C=CC2ON=C(c3ccc(Cl)cc3)C21 (stereo unspecified)
EC50 hypnozoite quantity [1, 8]: > 50 µM | EC50 schizont net growth area [1, 8]: > 1.85 µM | maximum inhibition [2, 8]: 103% | CC20 hepatic nuclei [3, 8]: 37.6 µM

O=S1(=O)C=CC2ON=C(c3c(Cl)cccc3Cl)C21 (stereo unspecified)
EC50 hypnozoite quantity [1, 8]: > 50 µM | maximum inhibition [2, 8]: 94.8% | CC20 hepatic nuclei [3, 8]: 45.7 µM

O=c1c(Cl)c(Cl)cnn1-c1nc2ccccc2[nH]1
EC50 hypnozoite quantity [1, 10]: > 3.33 µM | maximum inhibition [2, 10]: 89.7% | CC20 hepatic nuclei [3, 10]: > 3.33 µM

Cn1c(Sc2ncnc3sccc23)nc2ccccc21
EC50 hypnozoite quantity [1, 13]: > 50 µM | EC50 schizont net growth area [1, 13]: > 16.7 µM | maximum inhibition [2, 13]: 97% | CC20 hepatic nuclei [3, 13]: 39.4 µM

O=C(Nc1cccnn1)N1CCC(=Cc2cccc(Oc3ccc(C(F)(F)F)cn3)c2)CC1
EC50 hypnozoite quantity [1, 6]: > 10 µM | EC50 schizont net growth area [1, 6]: 1.23 µM | maximum inhibition [2, 6]: 99% | CC20 hepatic nuclei [3, 6]: > 10 µM

O=C(NCCN1CCCC1)c1cc(NCCCCN2CCC(F)(F)CC2)nc2ccc(Cl)cc12
EC50 hypnozoite quantity [1, 5]: > 50 µM | EC50 schizont net growth area [1, 5]: 0.00316 µM | maximum inhibition [2, 5]: 103% | CC20 hepatic nuclei [3, 5]: > 50 µM

O=C(Nc1nc(-c2ccccn2)cs1)C1CC1c1ccccc1F (stereo unspecified)
EC50 hypnozoite quantity [1, 14]: > 10 µM | maximum inhibition [2, 14]: 94.3% | CC20 hepatic nuclei [3, 14]: > 10 µM

N#Cc1ccc(-c2cnc(N)c(-c3ccc(C(N)=O)cc3)n2)cc1
EC50 hypnozoite quantity [1, 5]: > 50 µM | EC50 schizont net growth area [1, 5]: 0.0012 µM | maximum inhibition [2, 5]: 85.1% | CC20 hepatic nuclei [3, 5]: > 50 µM

NS(=O)(=O)c1cccc(-c2ccc3ncc(N4CCOCC4)nc3c2)c1
EC50 hypnozoite quantity [1, 11]: > 50 µM | EC50 schizont net growth area [1, 11]: 0.57 µM | maximum inhibition [2, 11]: 88.2% | CC20 hepatic nuclei [3, 11]: > 50 µM

Nc1ncc(-c2ccc(C(F)(F)F)nc2)cc1-c1ccc(C(F)(F)F)nc1
EC50 hypnozoite quantity [1, 5]: > 50 µM | EC50 schizont net growth area [1, 5]: 0.19 µM | maximum inhibition [2, 5]: 87.5% | CC20 hepatic nuclei [3, 5]: > 50 µM

Nc1ncc(-c2cn[nH]c2)cc1-c1nc2cc(Cl)cnc2[nH]1
EC50 hypnozoite quantity [1, 5]: > 50 µM | EC50 schizont net growth area [1, 5]: > 50 µM | maximum inhibition [2, 5]: 63.7% | CC20 hepatic nuclei [3, 5]: > 50 µM

N=c1n(CCN2CCCCC2)c2ccccc2n1CC(O)c1cccc(Br)c1 (stereo unspecified)
EC50 hypnozoite quantity [1, 6]: > 50 µM | EC50 schizont net growth area [1, 6]: > 16.7 µM | maximum inhibition [2, 6]: 111% | CC20 hepatic nuclei [3, 6]: 41.8 µM

OCc1ccc(-c2cncc(Nc3cccc(Cl)c3)c2)cc1
EC50 hypnozoite quantity [1, 9]: > 50 µM | EC50 schizont net growth area [1, 9]: 2.54 µM | maximum inhibition [2, 9]: 94.1% | CC20 hepatic nuclei [3, 9]: > 16.7 µM

Oc1c(C(c2ccncc2)N2CCCC2)ccc2cccnc12 (stereo unspecified)
EC50 hypnozoite quantity [1, 8]: > 50 µM | maximum inhibition [2, 8]: 80.2% | CC20 hepatic nuclei [3, 8]: > 50 µM

c1ccn2c(Sc3ncnc4sccc34)ncc2c1
EC50 hypnozoite quantity [1, 13]: > 50 µM | EC50 schizont net growth area [1, 13]: > 5.56 µM | maximum inhibition [2, 13]: 69.4% | CC20 hepatic nuclei [3, 13]: 41.4 µM

O=C(Nc1ccc([N+](=O)[O-])cc1)Nc1cc(OCC(F)(F)F)cc(OCC(F)(F)F)c1
EC50 hypnozoite quantity [1, 10]: > 10 µM | EC50 schizont net growth area [1, 10]: 3.33 µM | maximum inhibition [2, 10]: 75.3% | CC20 hepatic nuclei [3, 10]: > 3.33 µM

N#CC(c1ccc(Br)cc1)c1ccc2c(C(F)(F)F)cc(C(F)(F)F)nc2n1 (stereo unspecified)
EC50 hypnozoite quantity [1, 10]: 0.957 µM | EC50 schizont net growth area [1, 10]: 1.24 µM | maximum inhibition [2, 10]: 86% | CC20 hepatic nuclei [3, 10]: 5.44 µM

CC(C)(ON=C(C(=O)NC1C(=O)N2C(C(=O)[O-])=C(C[n+]3ccccc3)CSC12)c1csc(N)n1)C(=O)O (stereo unspecified) [Ceftazidime pentahydrate]
EC50 hypnozoite quantity [1, 6]: > 10 µM | EC50 schizont net growth area [1, 6]: > 10 µM | maximum inhibition [2, 6]: 47.9%
